Experimental data published in the supplement of paper PMC10307832.

Assays:
Experiment in all cases: relative viability (nuclei count vs DMSO), 5 days (fraction); higher = more cells survive
PAC-1 + Bortezomib = compound: C=CCc1cccc(/C=N/NC(=O)CN2CCN(Cc3ccccc3)CC2)c1O [PAC-1] + CC(C)C[C@H](NC(=O)[C@H](Cc1ccccc1)NC(=O)c1cnccn1)B(O)O [Bortezomib] (partner 0.002 µM)
Method in brief: (§1)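 For relative viability, nuclei counts in treated wells were divided by those in vehicle wells. Lung cancer cell lines had been pin-tool dosed in 1536-well plates the day after seeding and cultured for 5 days, then fixed and stained in one step (final 0.05% Triton X-100, 1% formaldehyde, 1 ug/ml Hoechst) and imaged at 4×. Doses were one drug alone or a fixed anchor-drug dose plus five library-drug doses (not always all listed) in √10 steps, and values are duplicate-plate medians.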

PAC-1 + AZD7762 = compound: C=CCc1cccc(/C=N/NC(=O)CN2CCN(Cc3ccccc3)CC2)c1O [PAC-1] + NC(=O)Nc1cc(-c2cccc(F)c2)sc1C(=O)N[C@H]1CCCNC1 [AZD7762] (partner 0.2 µM)
Method in brief: as §1

BMX-IN-1 + Trametinib = compound: C=CC(=O)Nc1cc(-n2c(=O)ccc3cnc4ccc(-c5ccc(NS(C)(=O)=O)cc5)cc4c32)ccc1C [BMX-IN-1] + CC(=O)Nc1cccc(-n2c(=O)n(C3CC3)c(=O)c3c(Nc4ccc(I)cc4F)n(C)c(=O)c(C)c32)c1 [Trametinib] (partner 0.02 µM)
Method in brief: as §1

Ibrutinib + Trametinib = compound: C=CC(=O)N1CCC[C@@H](n2nc(-c3ccc(Oc4ccccc4)cc3)c3c(N)ncnc32)C1 [Ibrutinib] + CC(=O)Nc1cccc(-n2c(=O)n(C3CC3)c(=O)c3c(Nc4ccc(I)cc4F)n(C)c(=O)c(C)c32)c1 [Trametinib] (partner 0.02 µM)
Method in brief: as §1

NCI-H647
relative viability (PAC-1 + Bortezomib; first compound 0.02 µM): 0.771
relative viability (PAC-1 + Bortezomib; first compound 0.06325 µM): 0.924
relative viability (PAC-1 + Bortezomib; first compound 0.2 µM): 0.765
relative viability (PAC-1 + Bortezomib; first compound 2 µM): 0.924
relative viability (PAC-1 + AZD7762; first compound 0.02 µM): 0.44
relative viability (PAC-1 + AZD7762; first compound 0.06325 µM): 0.589
relative viability (PAC-1 + AZD7762; first compound 0.2 µM): 0.502
relative viability (PAC-1 + AZD7762; first compound 2 µM): 0.467
relative viability (BMX-IN-1 + Trametinib; first compound 0.02 µM): 0.702
relative viability (BMX-IN-1 + Trametinib; first compound 0.2 µM): 0.563
relative viability (BMX-IN-1 + Trametinib; first compound 0.6325 µM): 0.467
relative viability (BMX-IN-1 + Trametinib; first compound 2 µM): 0.474
relative viability (Ibrutinib + Trametinib; first compound 0.005 µM): 0.415
relative viability (Ibrutinib + Trametinib; first compound 0.01581 µM): 0.445
relative viability (Ibrutinib + Trametinib; first compound 0.05 µM): 0.478
relative viability (Ibrutinib + Trametinib; first compound 0.1581 µM): 0.443
relative viability (Ibrutinib + Trametinib; first compound 0.5 µM): 0.529

NCI-H650
relative viability (PAC-1 + Bortezomib; first compound 0.02 µM): 0.755
relative viability (PAC-1 + Bortezomib; first compound 0.06325 µM): 0.871
relative viability (PAC-1 + Bortezomib; first compound 0.2 µM): 0.736
relative viability (PAC-1 + Bortezomib; first compound 2 µM): 0.735
relative viability (PAC-1 + AZD7762; first compound 0.02 µM): 0.945
relative viability (PAC-1 + AZD7762; first compound 0.06325 µM): 0.943
relative viability (PAC-1 + AZD7762; first compound 0.2 µM): 1.02
relative viability (PAC-1 + AZD7762; first compound 2 µM): 0.951
relative viability (BMX-IN-1 + Trametinib; first compound 0.02 µM): 1.01
relative viability (BMX-IN-1 + Trametinib; first compound 0.2 µM): 0.912
relative viability (BMX-IN-1 + Trametinib; first compound 0.6325 µM): 0.979
relative viability (BMX-IN-1 + Trametinib; first compound 2 µM): 0.919
relative viability (Ibrutinib + Trametinib; first compound 0.005 µM): 0.921
relative viability (Ibrutinib + Trametinib; first compound 0.01581 µM): 0.967
relative viability (Ibrutinib + Trametinib; first compound 0.05 µM): 1.01
relative viability (Ibrutinib + Trametinib; first compound 0.1581 µM): 1.06
relative viability (Ibrutinib + Trametinib; first compound 0.5 µM): 0.976

NCI-H727
relative viability (PAC-1 + Bortezomib; first compound 0.02 µM): 0.905
relative viability (PAC-1 + Bortezomib; first compound 0.06325 µM): 0.925
relative viability (PAC-1 + Bortezomib; first compound 0.2 µM): 0.944
relative viability (PAC-1 + Bortezomib; first compound 2 µM): 0.818
relative viability (PAC-1 + AZD7762; first compound 0.02 µM): 0.547
relative viability (PAC-1 + AZD7762; first compound 0.06325 µM): 0.615
relative viability (PAC-1 + AZD7762; first compound 0.2 µM): 0.671
relative viability (PAC-1 + AZD7762; first compound 2 µM): 0.711
relative viability (BMX-IN-1 + Trametinib; first compound 0.02 µM): 0.419
relative viability (BMX-IN-1 + Trametinib; first compound 0.2 µM): 0.429
relative viability (BMX-IN-1 + Trametinib; first compound 0.6325 µM): 0.387
relative viability (BMX-IN-1 + Trametinib; first compound 2 µM): 0.4
relative viability (Ibrutinib + Trametinib; first compound 0.005 µM): 0.463
relative viability (Ibrutinib + Trametinib; first compound 0.01581 µM): 0.4
relative viability (Ibrutinib + Trametinib; first compound 0.05 µM): 0.398
relative viability (Ibrutinib + Trametinib; first compound 0.1581 µM): 0.37
relative viability (Ibrutinib + Trametinib; first compound 0.5 µM): 0.388

NCI-H838
relative viability (PAC-1 + Bortezomib; first compound 0.02 µM): 0.732
relative viability (PAC-1 + Bortezomib; first compound 0.06325 µM): 0.717
relative viability (PAC-1 + Bortezomib; first compound 0.2 µM): 0.644
relative viability (PAC-1 + Bortezomib; first compound 2 µM): 0.711
relative viability (PAC-1 + AZD7762; first compound 0.02 µM): 0.972
relative viability (PAC-1 + AZD7762; first compound 0.06325 µM): 0.964
relative viability (PAC-1 + AZD7762; first compound 0.2 µM): 0.936
relative viability (PAC-1 + AZD7762; first compound 2 µM): 0.925
relative viability (BMX-IN-1 + Trametinib; first compound 0.02 µM): 0.605
relative viability (BMX-IN-1 + Trametinib; first compound 0.2 µM): 0.518
relative viability (BMX-IN-1 + Trametinib; first compound 0.6325 µM): 0.562
relative viability (BMX-IN-1 + Trametinib; first compound 2 µM): 0.568
relative viability (Ibrutinib + Trametinib; first compound 0.005 µM): 0.342
relative viability (Ibrutinib + Trametinib; first compound 0.01581 µM): 0.484
relative viability (Ibrutinib + Trametinib; first compound 0.05 µM): 0.528
relative viability (Ibrutinib + Trametinib; first compound 0.1581 µM): 0.523
relative viability (Ibrutinib + Trametinib; first compound 0.5 µM): 0.499

NCI-H1355
relative viability (PAC-1 + Bortezomib; first compound 0.02 µM): 1.15
relative viability (PAC-1 + Bortezomib; first compound 0.06325 µM): 1.28
relative viability (PAC-1 + Bortezomib; first compound 0.2 µM): 1.14
relative viability (PAC-1 + Bortezomib; first compound 2 µM): 1.2
relative viability (PAC-1 + AZD7762; first compound 0.02 µM): 0.634
relative viability (PAC-1 + AZD7762; first compound 0.06325 µM): 0.721
relative viability (PAC-1 + AZD7762; first compound 0.2 µM): 0.795
relative viability (PAC-1 + AZD7762; first compound 2 µM): 0.785
relative viability (BMX-IN-1 + Trametinib; first compound 0.02 µM): 0.385
relative viability (BMX-IN-1 + Trametinib; first compound 0.2 µM): 0.459
relative viability (BMX-IN-1 + Trametinib; first compound 0.6325 µM): 0.463
relative viability (BMX-IN-1 + Trametinib; first compound 2 µM): 0.45
relative viability (Ibrutinib + Trametinib; first compound 0.01581 µM): 0.395
relative viability (Ibrutinib + Trametinib; first compound 0.05 µM): 0.363
relative viability (Ibrutinib + Trametinib; first compound 0.1581 µM): 0.433
relative viability (Ibrutinib + Trametinib; first compound 0.5 µM): 0.368

NCI-H1437
relative viability (PAC-1 + Bortezomib; first compound 0.02 µM): 0.513
relative viability (PAC-1 + Bortezomib; first compound 0.06325 µM): 0.525
relative viability (PAC-1 + Bortezomib; first compound 0.2 µM): 0.414
relative viability (PAC-1 + Bortezomib; first compound 2 µM): 0.383
relative viability (PAC-1 + AZD7762; first compound 0.02 µM): 1.11
relative viability (PAC-1 + AZD7762; first compound 0.06325 µM): 1.09
relative viability (PAC-1 + AZD7762; first compound 0.2 µM): 1.12
relative viability (PAC-1 + AZD7762; first compound 2 µM): 0.844
relative viability (BMX-IN-1 + Trametinib; first compound 0.02 µM): 0.677
relative viability (BMX-IN-1 + Trametinib; first compound 0.2 µM): 0.489
relative viability (BMX-IN-1 + Trametinib; first compound 0.6325 µM): 0.605
relative viability (BMX-IN-1 + Trametinib; first compound 2 µM): 0.614
relative viability (Ibrutinib + Trametinib; first compound 0.005 µM): 0.53
relative viability (Ibrutinib + Trametinib; first compound 0.01581 µM): 0.51
relative viability (Ibrutinib + Trametinib; first compound 0.05 µM): 0.555
relative viability (Ibrutinib + Trametinib; first compound 0.1581 µM): 0.491
relative viability (Ibrutinib + Trametinib; first compound 0.5 µM): 0.624

NCI-H1651
relative viability (PAC-1 + Bortezomib; first compound 0.02 µM): 0.905
relative viability (PAC-1 + Bortezomib; first compound 0.06325 µM): 0.929
relative viability (PAC-1 + Bortezomib; first compound 0.2 µM): 0.88
relative viability (PAC-1 + Bortezomib; first compound 2 µM): 0.968
relative viability (PAC-1 + AZD7762; first compound 0.02 µM): 0.44
relative viability (PAC-1 + AZD7762; first compound 0.06325 µM): 0.358
relative viability (PAC-1 + AZD7762; first compound 0.2 µM): 0.447
relative viability (PAC-1 + AZD7762; first compound 2 µM): 0.467
relative viability (BMX-IN-1 + Trametinib; first compound 0.02 µM): 0.866
relative viability (BMX-IN-1 + Trametinib; first compound 0.2 µM): 0.908
relative viability (BMX-IN-1 + Trametinib; first compound 0.6325 µM): 0.879
relative viability (BMX-IN-1 + Trametinib; first compound 2 µM): 0.893
relative viability (Ibrutinib + Trametinib; first compound 0.005 µM): 0.858
relative viability (Ibrutinib + Trametinib; first compound 0.01581 µM): 0.807
relative viability (Ibrutinib + Trametinib; first compound 0.05 µM): 0.765
relative viability (Ibrutinib + Trametinib; first compound 0.1581 µM): 0.776
relative viability (Ibrutinib + Trametinib; first compound 0.5 µM): 0.773

NCI-H1666
relative viability (PAC-1 + Bortezomib; first compound 0.02 µM): 0.849
relative viability (PAC-1 + Bortezomib; first compound 0.06325 µM): 0.809
relative viability (PAC-1 + Bortezomib; first compound 0.2 µM): 0.828
relative viability (PAC-1 + Bortezomib; first compound 2 µM): 0.912
relative viability (PAC-1 + AZD7762; first compound 0.02 µM): 0.905
relative viability (PAC-1 + AZD7762; first compound 0.06325 µM): 0.816
relative viability (PAC-1 + AZD7762; first compound 0.2 µM): 0.896
relative viability (PAC-1 + AZD7762; first compound 2 µM): 0.809
relative viability (BMX-IN-1 + Trametinib; first compound 0.02 µM): 0.788
relative viability (BMX-IN-1 + Trametinib; first compound 0.2 µM): 1.06
relative viability (BMX-IN-1 + Trametinib; first compound 0.6325 µM): 0.977
relative viability (BMX-IN-1 + Trametinib; first compound 2 µM): 0.885
relative viability (Ibrutinib + Trametinib; first compound 0.005 µM): 0.809
relative viability (Ibrutinib + Trametinib; first compound 0.01581 µM): 0.849
relative viability (Ibrutinib + Trametinib; first compound 0.05 µM): 0.832
relative viability (Ibrutinib + Trametinib; first compound 0.1581 µM): 0.938
relative viability (Ibrutinib + Trametinib; first compound 0.5 µM): 0.744

NCI-H1734
relative viability (PAC-1 + Bortezomib; first compound 0.02 µM): 0.904
relative viability (PAC-1 + Bortezomib; first compound 0.06325 µM): 0.995
relative viability (PAC-1 + Bortezomib; first compound 0.2 µM): 0.877
relative viability (PAC-1 + Bortezomib; first compound 2 µM): 0.955
relative viability (PAC-1 + AZD7762; first compound 0.02 µM): 0.515
relative viability (PAC-1 + AZD7762; first compound 0.06325 µM): 0.615
relative viability (PAC-1 + AZD7762; first compound 0.2 µM): 0.532
relative viability (PAC-1 + AZD7762; first compound 2 µM): 0.546
relative viability (BMX-IN-1 + Trametinib; first compound 0.02 µM): 0.732
relative viability (BMX-IN-1 + Trametinib; first compound 0.2 µM): 0.751
relative viability (BMX-IN-1 + Trametinib; first compound 0.6325 µM): 0.735
relative viability (BMX-IN-1 + Trametinib; first compound 2 µM): 0.7
relative viability (Ibrutinib + Trametinib; first compound 0.005 µM): 0.636
relative viability (Ibrutinib + Trametinib; first compound 0.01581 µM): 0.67
relative viability (Ibrutinib + Trametinib; first compound 0.05 µM): 0.677
relative viability (Ibrutinib + Trametinib; first compound 0.1581 µM): 0.596
relative viability (Ibrutinib + Trametinib; first compound 0.5 µM): 0.618
